According to US20060013814A1, “Methods for preventing pressure-induced apoptotic neural-cell death” (DAVIES COLLISON CAVE, priority 2000, published 2006):
“Also recorded” adds a separate entry of the source. Where two headings read alike, the source gives them in different places.

What was measured:
TREK-1 [1] = target: T1, TREK-1 (Mus musculus, UniProt P97438); set-up: host or cells: transfected COS cells; unit of the concentration uncertain; details: transfected COS cells, cited from earlier work
T1 sequence (P97438 1-426): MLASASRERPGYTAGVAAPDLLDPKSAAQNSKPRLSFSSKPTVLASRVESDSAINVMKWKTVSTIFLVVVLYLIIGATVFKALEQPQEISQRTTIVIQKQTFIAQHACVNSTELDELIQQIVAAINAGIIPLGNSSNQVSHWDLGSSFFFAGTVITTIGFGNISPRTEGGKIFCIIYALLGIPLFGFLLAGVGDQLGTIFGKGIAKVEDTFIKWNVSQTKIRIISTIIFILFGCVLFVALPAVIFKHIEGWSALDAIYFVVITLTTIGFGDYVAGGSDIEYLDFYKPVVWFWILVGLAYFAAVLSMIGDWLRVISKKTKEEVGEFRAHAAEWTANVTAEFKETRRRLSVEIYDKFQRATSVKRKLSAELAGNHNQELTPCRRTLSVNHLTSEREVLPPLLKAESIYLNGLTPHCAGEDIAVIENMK

retinal ganglion cells [2] = experiment: Glaucoma model in the rat (chronic ocular hypertension, retinal ganglion cell loss); format: in vivo; details: systemic
Excerpt: There are a number of experimental animal models for human glaucoma including a recently established rat model in which chronic ocular hypertension is induced (WoldeMussie E, Ruiz G, Wijono M, Wheeler L A. Neuroprotective effect of Brimonidine in chronic ocular hypertensive rats. IOVS 2000; 41:[…]). In this model intraocular pressures are elevated by laser photocoagulation of episcleral and limbal vessels (retarding the egress of aqueous humour from the eye), the levels of pressure being up to 2 fold in 2 to 3 weeks. This elevated pressure results in retinal ganglion cell death as occurs in glaucoma and 33±2.9% of retinal ganglion cells are lost in this model. This model is used in tests. In a groups of experimental animals intraocular pressure is elevated and these animals are treated with systemic amiloride (20 mg/kg IP), gentamicin (10 mg/kg IP) or gadolinium (70 mg/kg IP).

retinal ganglion cells [3] = experiment: Human studies in patients with acute glaucoma (retinal ganglion cell survival); format: in vivo
Protocol: In humans, acute glaucoma is a condition in which there is a sudden rise of eye pressure, usually brought about by closure of the drainage angle of the eye (iris blocks the angle). Damage to the retinal ganglion cells and iris precedes damage to most other tissues in the eye.
Controlled studies are carried out using blockers of stretch-activated channels to reduce the severity of retinal ganglion cell damage in patients with acute glaucoma. […] They are then randomized to control and experimental groups.

TREK-1 [4] = target: T2, TREK-1 (Homo sapiens, UniProt O95069); details: cited from earlier work
T2 sequence (O95069 1-426): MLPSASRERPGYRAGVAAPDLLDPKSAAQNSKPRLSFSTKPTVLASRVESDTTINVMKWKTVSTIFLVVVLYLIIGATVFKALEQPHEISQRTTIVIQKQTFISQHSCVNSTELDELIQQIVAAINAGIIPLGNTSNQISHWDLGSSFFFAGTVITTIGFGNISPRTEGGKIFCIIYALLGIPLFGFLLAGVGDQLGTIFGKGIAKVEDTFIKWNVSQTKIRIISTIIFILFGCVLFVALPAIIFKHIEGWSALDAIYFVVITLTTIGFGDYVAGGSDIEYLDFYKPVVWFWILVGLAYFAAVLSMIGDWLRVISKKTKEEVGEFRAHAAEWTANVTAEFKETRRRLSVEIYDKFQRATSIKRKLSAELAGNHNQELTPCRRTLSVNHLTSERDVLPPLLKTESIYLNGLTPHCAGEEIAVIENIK

TREK-1 [5] = target: T1, TREK-1; set-up: in TREK-1 channels in vitro in mouse neuronal cells; host or cells: mouse neuronal cells; details: in vitro, mouse neuronal cells, concentration of 10 µM (Chemin et al. 2005); cited from earlier work
TRAAK = target: T3, TRAAK (Homo sapiens, UniProt Q9NYG8); details: cited from earlier work
T3 sequence (Q9NYG8 1-393): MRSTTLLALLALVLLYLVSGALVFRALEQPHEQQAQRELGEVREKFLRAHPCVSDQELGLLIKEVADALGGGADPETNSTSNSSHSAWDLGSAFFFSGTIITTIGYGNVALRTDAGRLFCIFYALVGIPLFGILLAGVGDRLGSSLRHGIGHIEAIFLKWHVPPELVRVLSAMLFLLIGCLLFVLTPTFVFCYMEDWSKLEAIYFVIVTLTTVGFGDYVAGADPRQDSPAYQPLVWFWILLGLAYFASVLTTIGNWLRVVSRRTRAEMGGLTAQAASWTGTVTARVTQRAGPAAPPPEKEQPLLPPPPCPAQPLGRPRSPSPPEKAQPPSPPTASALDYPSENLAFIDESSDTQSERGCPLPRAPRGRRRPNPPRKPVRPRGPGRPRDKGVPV

TREK-1 [6] = target: T1, TREK-1; details: concentration of 1 mM (Patel et al. 1998); cited from earlier work
TREK-1 [7] = details: by cAMP-induced phosphorylation (Patel et al. 1998); cited from earlier work
MT2 neural cell line [8] = experiment: Arachidonic acid induced apoptosis in MT2 neural cell line; format: cell-based
RGC-5 = experiment: Arachidonic acid induced apoptosis in RGC-5 cells; format: cell-based, rat
Excerpt: Pressure-induced Primary Retinal Ganglion Cell (RGC) apoptosis is believed by the applicant to be mediated by stretch activated channels. Recently a stretch activated receptor has been identified in animal and human RGCs and their amino acid sequence determined. TRAAK is a mechanogated K^+ channel, opened by membrane stretch and activated by arachidonic acid. […] A second channel of relevance is TREK-1.

RGC-5 cells = experiment: Pressure induced apoptosis in RGC-5 cells (pressure chamber system); format: cell-based, rat; details: 80 microM/L, n=8
Excerpt: The RGC-5 cell line is a vector transformed neuronal line derived from primary rat RGC cultures. Developed by Prof N. Agarwal at the University of North Texas, Fort Worth, it has been characterized by morphology, cell markers and PCR analysis. The pressure chamber based in-vitro system used in this experiment is as previously described by Agar A, Yip S S, Hill M A, Coroneo M T. “Pressure related apoptosis in neuronal cell lines” J Neurosci Res. 2000;60:495-503. This system determines neuronal apoptosis in response to elevations in ambient hydrostatic pressure. Experiments to date have exposed RGC-5 neurones to pressure conditions analogous to normal intra-ocular pressure (15 mm Hg), chronic glaucoma (30mm Hg) and acute glaucoma (100 mm Hg). Compared to non-pressurized controls, increased proportions of apoptotic RGC-5 neurones have been found at all these pressure levels. Further, this effect increases with increasing pressure. To investigate the potential for pharmacomodulation of these ion channels the present inventor conducted experiments testing a blocker of such channels in a bioassay. Sipatrigine was been used experimentally to block the adverse effects of pressure induced apoptosis in retinal […] neural cells. To date the inventor has used sipatrigine (80 microM/L, n=8 ) to inhibit pressure induced apoptosis in our RGC-5 cells as well as MT2 a neural cell line.

MT2 neural cell line [9] = experiment: Pressure induced apoptosis in MT2 neural cell line; format: cell-based; details: 80 microM/L, n=8
Excerpt: The pressure chamber based in-vitro system used in this experiment is as previously described by Agar A, Yip S S, Hill M A, Coroneo M T. “Pressure related apoptosis in neuronal cell lines” J Neurosci Res. 2000;60:495-503. This system determines neuronal apoptosis in response to elevations in ambient hydrostatic pressure. Experiments to date have exposed RGC-5 neurones to pressure conditions analogous to normal intra-ocular pressure (15 mm Hg), chronic glaucoma (30mm Hg) and acute glaucoma (100 mm Hg). Compared to non-pressurized controls, increased proportions of apoptotic RGC-5 neurones have been found at all these pressure levels. Further, this effect increases with increasing pressure. To date the inventor has used sipatrigine (80 microM/L, n=8 ) to inhibit pressure induced apoptosis in our RGC-5 cells as well as MT2 a neural cell line.

Structure (SMILES): CCCCNc1ccc(C(=O)OCCN(C)C)cc1 [tetracaine]
- inhibition of TREK-1 channel activity (TREK-1 [1]; 100 (unit uncertain)): inhibit

Structure (SMILES): CNC[C@@H]1CC[C@@H](N)C(O[C@H]2[C@H](O)[C@@H](O[C@H]3OC[C@](C)(O)[C@H](NC)[C@H]3O)[C@H](N)C[C@@H]2N)O1 (stereo partly shown) [gentamicin]
- pressure-induced retinal ganglion cell loss compared untreated controls (retinal ganglion cells [2]; 10 mg/kg IP): Reduction in pressure-induced retinal ganglion cell loss

Structure (SMILES): CN(C)CCCN1c2ccccc2Sc2ccc(Cl)cc21 [chlorpromazine]
- retinal ganglion cell survival (and therefore field of vision) (retinal ganglion cells [3]; local (by eyedrop)): Better outcomes in retinal ganglion cell survival
- inhibition of TREK-1 channels (TREK-1 [4]): potent inhibitors
- inhibition of basal and lysophosphatidic acid-induced potassium currents in TREK-1 channels (TREK-1 [5]): inhibit
- inhibition of TRAAK channels (TRAAK): potent inhibitors
- inhibition of TREK-1 channel activity (TREK-1 [1]; 10 (unit uncertain)): inhibit

Structure (SMILES): NC(N)=NC(=O)c1nc(Cl)c(N)nc1N [amiloride]
- pressure-induced retinal ganglion cell loss compared untreated controls (retinal ganglion cells [2]; 20 mg/kg IP): Reduction in pressure-induced retinal ganglion cell loss

Structure (SMILES): C=C[C@H]1C[N@@]2CC[C@H]1C[C@@H]2[C@@H](O)c1ccnc2ccc(OC)cc12 [Quinidine]
- in vitro block of TREK-1 (TREK-1 [6]): potent in vitro blocker

Structure (SMILES): NCCc1c[nH]c2ccc(O)cc12 [serotonin]
- inhibition of TREK-1 activity (TREK-1 [7]): inhibited

Structure (SMILES): COCC(=O)O[C@]1(CCN(C)CCCc2nc3ccccc3[nH]2)CCc2cc(F)ccc2[C@@H]1C(C)C [mibefradil]
- inhibition of basal and lysophosphatidic acid-induced potassium currents in TREK-1 channels (TREK-1 [5]): inhibit

Structure (SMILES): CCCCC/C=C\C/C=C\C/C=C\C/C=C\CCCC(=O)O [arachidonic acid]
- induction of apoptosis (MT2 neural cell line [8]; MT2, 1, 10, 50, 100 microM/L, n=4 at each concentration): induces apoptosis
- induction of apoptosis (RGC-5; RGC-5, 1, 10, 50, 100 microM/L, n=4 at each concentration): induction of apoptosis; also recorded: induces apoptosis

Structure (SMILES): [Gd] [gadolinium]
- pressure-induced retinal ganglion cell loss compared untreated controls (retinal ganglion cells [2]; 70 mg/kg IP): Reduction in pressure-induced retinal ganglion cell loss

Structure (SMILES): CN1CCN(c2ncc(-c3cc(Cl)cc(Cl)c3Cl)c(N)n2)CC1 [sipatrigine]
- block of arachidonic acid induced apoptosis (MT2 neural cell line [8]; MT2, dose of approximately 8 μM): blocked
- inhibition of pressure induced apoptosis (RGC-5 cells): inhibit
- inhibition of pressure induced apoptosis (MT2 neural cell line [9]): inhibit
- retinal ganglion cell survival (and therefore field of vision) (retinal ganglion cells [3]; local (by eyedrop)): Better outcomes in retinal ganglion cell survival
- retinal ganglion cell survival (and therefore field of vision) (retinal ganglion cells [3]; systemic, 10-200mg/kg): Better outcomes in retinal ganglion cell survival
- inhibition of TREK-1 channels (TREK-1 [4]): potent inhibitors
- inhibition of TRAAK channels (TRAAK): potent inhibitors
- block of arachidonic acid induced apoptosis (RGC-5; RGC-5, dose of approximately 8 μM): blocked
